IC50 data for 20 compounds are collected here from US8791123B2, “Substituted pyrazolo[1,5-a]pyrimidine compounds as Trk kinase inhibitors” (Array Biopharma, Inc., priority 2009, dated 2014).

The structures appear in SMILES notation. pIC50: −log10 of the molar value.

The target of assay [1] is TrkA (histidine-tagged recombinant human TrkA, cytoplasmic domain) (Homo sapiens (Human), UniProt P04629). In words: TrkA ELISA Assay. Format: biochemical. Conditions: Table 1; ELISA, 500 μM ATP; read-out: TrkA Enzyme IC50. The procedure, abridged: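 ELISA read-out: a peroxidase-linked anti-phosphotyrosine antibody (PY20, 0.2 μg/mL) with TMB substrate, absorbance at 450 nm after acid stop. The plate-bound substrate was poly(Glu,Ala,Tyr; 6:3:1) at 0.025 mg/mL, phosphorylated by the recombinant His-tagged human TrkA cytoplasmic domain in the presence of inhibitors.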
A general note: ELISA stands for enzyme-linked immunosorbent assay.

The target in assay [2] is Human Jak2 kinase domain (Homo sapiens (Human), UniProt O60674). In words: Jak2 Inhibition Assay (Omnia kinase assay). It is filed as biochemical. Conditions: Table 1; 500 μM ATP; >1000 nM when >50% inhibition not observed at 1000 nM; read-out: Jak2 Enzyme IC50.
Human Jak2 kinase domain, sequence (O60674 808-1132): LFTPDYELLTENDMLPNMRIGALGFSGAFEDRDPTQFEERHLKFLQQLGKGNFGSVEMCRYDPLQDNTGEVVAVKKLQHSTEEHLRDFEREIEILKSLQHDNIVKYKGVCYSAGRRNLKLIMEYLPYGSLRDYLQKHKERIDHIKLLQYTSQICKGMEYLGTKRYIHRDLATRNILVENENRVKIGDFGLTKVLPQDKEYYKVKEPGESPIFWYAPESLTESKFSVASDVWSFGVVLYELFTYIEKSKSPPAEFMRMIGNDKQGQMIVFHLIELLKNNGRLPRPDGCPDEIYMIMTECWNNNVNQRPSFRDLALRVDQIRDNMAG

TrkA (histidine-tagged recombinant human TrkA, cytoplasmic domain), sequence (P04629 440-796): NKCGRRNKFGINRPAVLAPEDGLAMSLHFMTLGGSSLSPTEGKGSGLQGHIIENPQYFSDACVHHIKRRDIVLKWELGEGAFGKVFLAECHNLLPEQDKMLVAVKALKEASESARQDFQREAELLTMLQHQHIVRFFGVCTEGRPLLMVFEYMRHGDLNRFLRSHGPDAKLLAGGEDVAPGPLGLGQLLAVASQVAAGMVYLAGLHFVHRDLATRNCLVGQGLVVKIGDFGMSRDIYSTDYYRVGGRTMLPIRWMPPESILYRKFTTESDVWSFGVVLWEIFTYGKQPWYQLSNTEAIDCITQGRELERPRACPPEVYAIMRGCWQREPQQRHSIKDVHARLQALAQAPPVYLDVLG

For `O=C(NCCO)c1cnn2ccc(N3CCC[C@@H]3c3cncc(F)c3)nc12` [Example 112, (R)-5-(2-(5-fluoropyridin-3-yl)pyrrolidin-1-yl)-N-(2-hydroxyethyl)pyrazolo[1,5-a]pyrimidine-3-carboxamide], the pIC50 in assay [1] was 7.51; in assay [2], < 6.00.
On to `CC(C)(CF)NC(=O)c1cnn2ccc(N3CCC[C@@H]3c3cc(F)ccc3F)nc12` [Example 40, (R)-5-(2-(2,5-difluorophenyl)pyrrolidin-1-yl)-N-(1-fluoro-2-methylpropan-2-yl)pyrazolo[1,5-a]pyrimidine-3-carboxamide], for which the values for the negative-log IC50 (pIC50) in assay [1] and in assay [2] were 9.10 and < 6.00, respectively.
The matching figures for `CC(C)(C)NC(=O)c1cnn2ccc(N3CCC[C@@H]3c3cc(F)c[nH]c3=O)nc12` [Example 202, (R)—N-tert-butyl-5-(2-(5-fluoro-2-oxo-1,2-dihydropyridin-3-yl)pyrrolidin-1-yl)pyrazolo[1,5-a]pyrimidine-3-carboxamide]: 7.71 and < 6.00.
Consider `CC(C)NC(=O)c1cnn2ccc(N3[C@@H](c4cncc(F)c4)CC[C@@]3(C)CO)nc12` [Example 219, 5-((2S,5R)-5-(5-fluoropyridin-3-yl)-2-(hydroxymethyl)-2-methylpyrrolidin-1-yl)-N-isopropylpyrazolo[1,5-a]pyrimidine-3-carboxamide], for which the pIC50 was 6.73 in assay [1] and < 6.00 in assay [2].
Taken in the same sequence, the figures for `O=C(N[C@H]1CC[C@H](O)CC1)c1cnn2ccc(N3CCC[C@@H]3c3cccc(F)c3)nc12` [Example 35, 5-((R)-2-(3-fluorophenyl)pyrrolidin-1-yl)-N-((trans)-4-hydroxycyclohexyl)pyrazolo[1,5-a]pyrimidine-3-carboxamide] were 8.92 and 6.56.
Taken in the same sequence, the figures for `COc1ncc(F)cc1[C@H]1CCCN1c1ccn2ncc(C(=O)NC3CCN(CCO)CC3)c2n1` [Example 159, (R)-5-(2-(5-fluoro-2-methoxypyridin-3-yl)pyrrolidin-1-yl)-N-(1-(2-hydroxyethyl)piperidin-4-yl)pyrazolo[1,5-a]pyrimidine-3-carboxamide] were 8.37 and < 6.00.
Turning to `COc1ncc(F)cc1[C@H]1CCCN1c1ccn2ncc(C(=O)NC(CO)CO)c2n1` [Example 160, (R)-N-(1,3-dihydroxypropan-2-yl)-5-(2-(5-fluoro-2-methoxypyridin-3-yl)pyrrolidin-1-yl)pyrazolo[1,5-a]pyrimidine-3-carboxamide], the negative-log IC50 (pIC50) was 7.59 in assay [1] and < 6.00 in assay [2].
`CN1CCN(CCNC(=O)c2cnn3ccc(N4CCC[C@@H]4c4cc(F)ccc4F)nc23)CC1` [Example 171, 5-((R)-2-(2,5-difluorophenyl)pyrrolidin-1-yl)-N-(2-(4-methylpiperazin-1-yl)ethyl)pyrazolo[1,5-a]pyrimidine-3-carboxamide]: the negative-log IC50 (pIC50) in assay [1] is 8.33; in assay [2], < 6.00.
Taken in the same sequence, the figures for `CC1(NC(=O)c2cnn3ccc(N4[C@H](CO)CC[C@@H]4c4cncc(F)c4)nc23)CC1` [Example 214, 5-((2R,5S)-2-(5-fluoropyridin-3-yl)-5-(hydroxymethyl)pyrrolidin-1-yl)-N-(1-methylcyclopropyl)pyrazolo[1,5-a]pyrimidine-3-carboxamide] were 8.07 and < 6.00.
Take `Cn1cc(F)cc([C@H]2CCCN2c2ccn3ncc(C(=O)NC4CCC4)c3n2)c1=O` [Example 230, (R)-N-cyclobutyl-5-(2-(5-fluoro-1-methyl-2-oxo-1,2-dihydropyridin-3-yl)pyrrolidin-1-yl)pyrazolo[1,5-a]pyrimidine-3-carboxamide]: the negative logarithm of the IC50 (pIC50) was 8.52 in assay [1] and 6.18 in assay [2].
The matching figures for `Cn1ccc(NC(=O)c2cnn3ccc(N4CCC[C@@H]4c4cc(F)ccc4F)nc23)n1` [Example 6, (R)-5-(2-(2,5-difluorophenyl)pyrrolidin-1-yl)-N-(1-methyl-1H-pyrazol-3-yl)pyrazolo[1,5-a]pyrimidine-3-carboxamide]: 8.81 and < 6.00.
As for `CC1(C)OCC(COc2ccc(F)cc2[C@H]2CCCN2c2ccn3ncc(C(N)=O)c3n2)O1` (stereo partly drawn) [Example 205, 5-((2R)-2-(2-((2,2-dimethyl-1,3-dioxolan-4-yl)methoxy)-5-fluorophenyl)pyrrolidin-1-yl)pyrazolo[1,5-a]pyrimidine-3-carboxamide], the pIC50 in assay [1] was 7.84; in assay [2], < 6.00.
The matching figures for `O=C(c1cnn2ccc(N3CCC[C@@H]3c3cncc(F)c3)nc12)N1CC(CO)C1` [Example 127, (R)-(5-(2-(5-fluoropyridin-3-yl)pyrrolidin-1-yl)pyrazolo[1,5-a]pyrimidin-3-yl)(3-(hydroxymethyl)azetidin-1-yl)methanone]: 6.33 and < 6.00.
The matching figures for `O=C(NC1CC1)c1cnn2ccc(N3CCC[C@@H]3c3cc(F)ccc3F)nc12` [Example 13, (R)—N-cyclopropyl-5-(2-(2,5-difluorophenyl)pyrrolidin-1-yl)pyrazolo[1,5-a]pyrimidine-3-carboxamide]: 9.30 and < 6.00.
On to `C[C@@H](O)CNC(=O)c1cnn2ccc(N3CCCC3c3cc(F)ccc3F)nc12` (stereo in doubt) [Example 167, 5-((R)-2-(2,5-difluorophenyl)pyrrolidin-1-yl)-N-(2-hydroxypropyl)pyrazolo[1,5-a]pyrimidine-3-carboxamide], for which the figures for the pIC50 in assay [1] and in assay [2] were 8.66 and < 6.00, respectively.
In the case of `COc1ncc(F)cc1[C@H]1CCCN1c1ccn2ncc(C(=O)NCCCO)c2n1` [Example 148, (R)-5-(2-(5-fluoro-2-methoxypyridin-3-yl)pyrrolidin-1-yl)-N-(3-hydroxypropyl)pyrazolo[1,5-a]pyrimidine-3-carboxamide], the figures for the pIC50 in assay [1] and in assay [2] were 8.96 and < 6.00, respectively.
Turning to `Cc1cccnc1NC(=O)c1cnn2ccc(N3CCC[C@@H]3c3cc(F)ccc3F)nc12` [Example 3, (R)-5-(2-(2,5-difluorophenyl)pyrrolidin-1-yl)-N-(3-methylpyridin-2-yl)pyrazolo[1,5-a]pyrimidine-3-carboxamide], the pIC50 in assay [1] is 8.64; in assay [2], < 6.00.
In the case of `CC(C)NC(=O)c1cnn2ccc(N3CCC[C@@H]3c3cc(F)cn(C)c3=O)nc12` [Example 227, (R)-5-(2-(5-fluoro-1-methyl-2-oxo-1,2-dihydropyridin-3-yl)pyrrolidin-1-yl)-N-isopropylpyrazolo[1,5-a]pyrimidine-3-carboxamide], the negative logarithm of the IC50 (pIC50) was 7.91 in assay [1] and 6.35 in assay [2].
Regarding `O=C(NC1CC1)c1cnn2ccc(N3CCC[C@@H]3c3cccc(F)c3)nc12` [Example 37, (R)—N-cyclopropyl-5-(2-(3-fluorophenyl)pyrrolidin-1-yl)pyrazolo[1,5-a]pyrimidine-3-carboxamide], the pIC50 in assay [1] was 8.78; in assay [2] it was < 6.00.
As to `CC1(O)CN(C(=O)c2cnn3ccc(N4CCC[C@@H]4c4cncc(F)c4)nc23)C1` [Example 92, (R)-(5-(2-(5-fluoropyridin-3-yl)pyrrolidin-1-yl)pyrazolo[1,5-a]pyrimidin-3-yl)(3-hydroxy-3-methylazetidin-1-yl)methanone], the pIC50 was 5.99 in assay [1] and < 6.00 in assay [2].

What is called pIC50 is the IC50 on a negative log10 scale, so that one unit is a factor of ten.
